US11091478B2 (Fochon Pharmaceuticals, Ltd., priority 2017, dated 2021)

Key:
DOHH2 cells = assay: Cell proliferation assay (MTS), DOHH2 cells, 120 h; type: cell-based; conditions: Homo sapiens, DOHH-2, 120 h
Method in brief: (§1)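 Cells in RPMI-1640 with 10% FBS were seeded at 5000/well, left overnight at 37° C., 5% CO2, then exposed to compound at 10000 down to 1.5 nM (nine concentrations) for 72 h (RS4;11) or 120 h (DOHH2). Viability was read by MTS, 2 h, absorbance at 490/650 nm; IC50 calculated.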

RS4;11 cells = assay: Cell proliferation assay (MTS), RS4;11 cells, 72 h; type: cell-based; conditions: Homo sapiens, RS4-11, 72 h
Method in brief: as §1

IC50 (RS4;11 cells) [µM] | SMILES | IC50 (DOHH2 cells) [µM]
0.002 | CC1(C)CCC(CN2CCN(c3ccc(C(=O)NS(=O)(=O)c4cc5c(c([N+](=O)[O-])c4)N[C@@H](CN4C[C@H]6C[C@@H]4CO6)CO5)c(Oc4cnc5[nH]ccc5c4)c3)CC2)=C(c2ccc(Cl)cc2)C1 [Example 2-88, 2-((1H-pyrrolo[2,3-b]pyridin-5-yl)oxy)-N-(((S)-3-(((1R,4R)-2-oxa-5-azabicyclo[2.2.1]heptan-5-yl)methyl)-5-nitro-3,4-dihydro-2H-benzo[b][1,4]oxazin-7-yl)sulfonyl)-4-(4-((4′-chloro-5,5-dimethyl-3,4,5,6-tetrahydro-[1,1′-biphenyl]-2-yl)methyl)piperazin-1-yl) benzamide] | 0.014
0.05 | CC1(C)CCC(CN2CCN(c3ccc(C(=O)NS(=O)(=O)c4cc5c(c([N+](=O)[O-])c4)N[C@@H](CN4CCCCC4)CO5)c(Oc4cnc5[nH]ccc5c4)c3)CC2)=C(c2ccc(Cl)cc2)C1 [Example 2-89, (S)-2-((1H-pyrrolo[2,3-b]pyridin-5-yl)oxy)-4-(4-((4′-chloro-5,5-dimethyl-3,4,5,6-tetra-hydro-[1,1′-biphenyl]-2-yl)methyl)piperazin-1-yl)-N-((5-nitro-3-(piperidin-1-ylmethyl)-3,4-dihydro-2H-benzo[b][1,4]oxazin-7-yl)sulfonyl)benzamide] | 0.055
0.008 | CC1(C)CCC(CN2CCN(c3ccc(C(=O)NS(=O)(=O)c4cc5c(c([N+](=O)[O-])c4)N[C@H](CN4CCN(S(C)(=O)=O)CC4)CO5)c(Oc4cnc5[nH]ccc5c4)c3)CC2)=C(c2ccc(Cl)cc2)C1 [Example 2-90, (R)-2-((1H-pyrrolo[2,3-b]pyridin-5-yl)oxy)-4-(4-((4′-chloro-5,5-dimethyl-3,4,5,6-tetra-hydro-[1,1′-biphenyl]-2-yl)methyl)piperazin-1-yl)-N-((3-((4-(methylsulfonyl)piperazin-1-yl)methyl)-5-nitro-3,4-dihdyro-2H-ben-zo[b][1,4]oxazin-7-yl)sulfonyl)benzamide] | 0.022
0.005 | CC(=O)N1CCN(C[C@@H]2COc3cc(S(=O)(=O)NC(=O)c4ccc(N5CCN(CC6=C(c7ccc(Cl)cc7)CC(C)(C)CC6)CC5)cc4Oc4cnc5[nH]ccc5c4)cc([N+](=O)[O-])c3N2)CC1 [Example 2-91, (R)-2-((1H-pyrrolo[2,3-b]pyridin-5-yl)oxy)-N-((3-((4-acetylpiperazin-1-yl)methyl)-5-nitro-3,4-dihydro-2H-benzo[b][1,4]oxazin-7-yl)sulfonyl)-4-(4-((4′-chloro-5,5-dimethyl-3,4,5,6-tetrahydro-[1,1′-biphenyl]-2-yl)meth-yl)piperazin-1-yl)benzamide] | 0.049
0.005 | CCC(=O)N1CCN(C[C@@H]2COc3cc(S(=O)(=O)NC(=O)c4ccc(N5CCN(CC6=C(c7ccc(Cl)cc7)CC(C)(C)CC6)CC5)cc4Oc4cnc5[nH]ccc5c4)cc([N+](=O)[O-])c3N2)CC1 [Example 2-92, (R)-2-((1H-pyrrolo[2,3-b]pyridin-5-yl)oxy)-4-(4-((4′-chloro-5,5-dimethyl-3,4,5,6-tetra-hydro-[1,1′-biphenyl]-2-yl)methyl)piperazin-1-yl)-N-((5-nitro-3-((4-propionylpiperazin-1-yl)methyl)-3,4-dihydro-2H-benzo[b] [1,4]oxazin-7-yl)sulfonyl)benzamide] | 0.079
0.04 | COC(=O)N1CCN(C[C@@H]2COc3cc(S(=O)(=O)NC(=O)c4ccc(N5CCN(CC6=C(c7ccc(Cl)cc7)CC(C)(C)CC6)CC5)cc4Oc4cnc5[nH]ccc5c4)cc([N+](=O)[O-])c3N2)CC1 [Example 2-93, methyl (R)-4-((7-(N-(2-((1H-pyrrolo[2,3-b]pyridin-5-yl)oxy)-4-(4-((4′-chloro-5,5-dimethyl-3,4,5,6-tetrahydro-[1,1′-biphenyl]-2-yl)methyl)piperazin-1-yl)benzoyl)sulfamoyl)-5-nitro-3,4-dihydro-2H-benzo[b][1,4]oxazin-3-yl)methyl)piperazine-1-carboxylate] | 0.016
0.02 | CC1(C)CCC(CN2CCN(c3ccc(C(=O)NS(=O)(=O)c4cc5c(c([N+](=O)[O-])c4)N[C@H](CN4CCN(C(=O)C6CC6)CC4)CO5)c(Oc4cnc5[nH]ccc5c4)c3)CC2)=C(c2ccc(Cl)cc2)C1 [Example 2-94, (R)-2-((1H-pyrrolo[2,3-b]pyridin-5-yl)oxy)-4-(4-((4′-chloro-5,5-dimethyl-3,4,5,6-tetra-hydro-[1,1′-biphenyl]-2-yl)methyl)piperazin-1-yl)-N-((3-((4-(cyclopropanecarbonyl)piperazin-1-yl)methyl)-5-nitro-3,4-dihydro-2H-benzo[b][1,4]oxazin-7-yl)sulfonyl)benza-mide] | 0.001
0.045 | CC1(C)CCC(CN2CCN(c3ccc(C(=O)NS(=O)(=O)c4cc5c(c([N+](=O)[O-])c4)N[C@@H](CN4CCN(S(C)(=O)=O)CC4)CO5)c(Oc4cnc5[nH]ccc5c4)c3)CC2)=C(c2ccc(Cl)cc2)C1 [Example 2-95, (S)-2-((1H-pyrrolo[2,3-b]pyridin-5-yl)oxy)-4-(4-((4′-chloro-5,5-dimethyl-3,4,5,6-tetra-hydro-[1,1′-biphenyl]-2-yl)methyl)piperazin-1-yl)-N-((3-((4-(methylsulfonyl)piperazin-1-yl)methyl)-5-nitro-3,4-dihydro-2H-ben-zo[b][1,4]oxazin-7-yl)sulfonyl)benzamide] | 0.019
0.072 | CC(=O)N1CCN(C[C@H]2COc3cc(S(=O)(=O)NC(=O)c4ccc(N5CCN(CC6=C(c7ccc(Cl)cc7)CC(C)(C)CC6)CC5)cc4Oc4cnc5[nH]ccc5c4)cc([N+](=O)[O-])c3N2)CC1 [Example 2-96, (S)-2-((1H-pyrrolo[2,3-b]pyridin-5-yl)oxy)-N-((3-((4-acetylpiperazin-1-yl)methyl)-5-nitro-3,4-dihydro-2H-benzo[b][1,4]oxazin-7-yl)sulfonyl)-4-(4-((4′-chloro-5,5-dimethyl-3,4,5,6-tetrahydro-[1,1′-biphenyl]-2-yl)meth-yl)piperazin-1-yl)benzamide] | 0.085
0.023 | CCC(=O)N1CCN(C[C@H]2COc3cc(S(=O)(=O)NC(=O)c4ccc(N5CCN(CC6=C(c7ccc(Cl)cc7)CC(C)(C)CC6)CC5)cc4Oc4cnc5[nH]ccc5c4)cc([N+](=O)[O-])c3N2)CC1 [Example 2-97, (S)-2-((1H-pyrrolo[2,3-b]pyridin-5-yl)oxy)-4-(4-((4′-chloro-5,5-dimethyl-3,4,5,6-tetra-hydro-[1,1′-biphenyl]-2-yl)methyl)piperazin-1-yl)-N-((5-nitro-3-((4-propionylpiperazin-1-yl)methyl)-3,4-dihydro-2H-benzo[b] [1,4]oxazin-7-yl)sulfonyl)benzamide] | 0.023
0.017 | COC(=O)N1CCN(C[C@H]2COc3cc(S(=O)(=O)NC(=O)c4ccc(N5CCN(CC6=C(c7ccc(Cl)cc7)CC(C)(C)CC6)CC5)cc4Oc4cnc5[nH]ccc5c4)cc([N+](=O)[O-])c3N2)CC1 [Example 2-98, methyl (S)-4-((7-(N-(2-((1H-pyrrolo[2,3-b]pyridin-5-y)oxy)-4-(4-((4′-chloro-5,5-dimethyl-3,4,5,6-tetrahydro[1,1′-biphenyl]-2-yl)methyl)piperazin-1-yl)benzoyl)sulfamoyl)-5-nitro-3,4-dihydro-2H-benzo[b][1,4]oxazin-3-yl)methyl)piperazine-1-carboxylate] | 0.038
